In ChEMBL document CHEMBL1201862, “PubChem BioAssay data set” (2004):
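Where inhibition never reached the appropriate level, the endpoint shown equals the highest concentration tested. Otherwise, values were interpolated linearly from a five-concentration, 48-hour dose response in 96-well plates. GI50 = concentration required for 50% inhibition of growth.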 Active and inactive are the calls of the source. Rule as the data show it: active = GI50 up to about 1.1 µM and inactive = higher.

Columns and labels:
Assay in all cases: DTP human tumour cell line panel, 48 h
[1] = tested on: NCI-H522
[2] = tested on: LOX IMVI
[3] = tested on: HCT-15
[4] = tested on: MDA-N
[5] = tested on: K562
[6] = tested on: A498
[7] = tested on: HOP-62
[8] = tested on: SNB-75
[9] = tested on: MOLT-4
[10] = tested on: T47D
[11] = tested on: RXF 393
[12] = tested on: UO-31
[13] = tested on: OVCAR-8
[14] = tested on: CCRF-CEM
[15] = tested on: HOP-92
[16] = tested on: HCC 2998
[17] = tested on: MDA-MB-231
[18] = tested on: Malme-3M
[19] = tested on: CAKI-1
[20] = tested on: MDA-MB-435
[21] = tested on: NCI-H460
[22] = tested on: SK-MEL-28
[23] = tested on: ACHN
[24] = tested on: UACC-257
[25] = tested on: SK-MEL-5
[26] = tested on: SN12C
[27] = tested on: SF-539
[28] = tested on: TK-10
[29] = tested on: OVCAR-3
[30] = tested on: DU-145
[31] = tested on: SR
[32] = tested on: PC-3
[33] = tested on: U-251
[34] = tested on: HT-29
[35] = tested on: A549
[36] = tested on: UACC-62
[37] = tested on: EKVX
[38] = tested on: HCT-116
[39] = tested on: NCI-H226
[40] = tested on: COLO 205
[41] = tested on: KM12
[42] = tested on: SK-OV-3
[43] = tested on: 786-0
[44] = tested on: OVCAR-4
[45] = tested on: SNB-19
[46] = tested on: OVCAR-5
[47] = tested on: NCI/ADR-RES
[48] = tested on: NCI-H23
[49] = tested on: MCF7
[50] = tested on: BT-549
[51] = tested on: IGROV-1
[52] = tested on: SK-MEL-2
[53] = tested on: SF-295
[54] = tested on: M14
[55] = tested on: SF-268
[56] = tested on: SW-620

## CCCCOC(C)(C)/C=C/C(O)[C@](C)(O)[C@H]1[C@H](O)C[C@@]2(C)[C@@H]3CCc4c(cc(OC5OC(CO)C(O)C(O)C5O)c(O)c4C)C3(C)C(=O)C[C@]12C (stereo partly specified)
[1]
  GI50: > 100 µM (inactive)
[2]
  GI50: > 100 µM (inactive)
[3]
  GI50: > 100 µM
[4]
  GI50: > 100 µM (inactive)
[5]
  GI50: > 100 µM (inactive)
[6]
  GI50: > 100 µM (inactive)
[7]
  GI50: > 100 µM (inactive)
[8]
  GI50: > 100 µM (inactive)
[9]
  GI50: > 100 µM (inactive)
[10]
  GI50: > 100 µM (inactive)
[11]
  GI50: > 100 µM (inactive)
[12]
  GI50: > 100 µM (inactive)
[13]
  GI50: > 100 µM (inactive)
[14]
  GI50: > 100 µM (inactive)
[15]
  GI50: > 100 µM (inactive)
[16]
  GI50: > 100 µM (inactive)
[17]
  GI50: > 100 µM (inactive)
[18]
  GI50: > 100 µM (inactive)
[19]
  GI50: > 100 µM (inactive)
[20]
  GI50: > 100 µM (inactive)
[21]
  GI50: > 100 µM (inactive)
[22]
  GI50: > 100 µM (inactive)
[23]
  GI50: > 100 µM (inactive)
[24]
  GI50: > 100 µM (inactive)
[25]
  GI50: > 100 µM (inactive)
[26]
  GI50: > 100 µM (inactive)
[27]
  GI50: > 100 µM (inactive)
[28]
  GI50: > 100 µM (inactive)
[29]
  GI50: > 100 µM (inactive)
[30]
  GI50: > 100 µM (inactive)
[31]
  GI50: > 100 µM (inactive)
[32]
  GI50: > 100 µM (inactive)
[33]
  GI50: > 100 µM (inactive)
[34]
  GI50: > 100 µM (inactive)
[35]
  GI50: > 100 µM (inactive)
[36]
  GI50: > 100 µM (inactive)
[37]
  GI50: > 100 µM (inactive)
[38]
  GI50: > 100 µM (inactive)
[39]
  GI50: > 100 µM (inactive)
[40]
  GI50: > 100 µM (inactive)
[41]
  GI50: > 100 µM (inactive)
[42]
  GI50: > 100 µM (inactive)
[43]
  GI50: > 100 µM (inactive)
[44]
  GI50: > 100 µM (inactive)
[45]
  GI50: > 100 µM (inactive)
[46]
  GI50: > 100 µM (inactive)
[47]
  GI50: > 100 µM (inactive)
[48]
  GI50: > 100 µM (inactive)
[49]
  GI50: > 100 µM (inactive)
[50]
  GI50: > 100 µM (inactive)
[51]
  GI50: > 100 µM (inactive)
[52]
  GI50: > 100 µM (inactive)
[53]
  GI50: > 100 µM (inactive)
[54]
  GI50: > 100 µM (inactive)
[55]
  GI50: > 100 µM (inactive)
[56]
  GI50: > 100 µM (inactive)
